Assay results reported in patent publication US20180273531A1, “PYRIMIDINE COMPOUND AND MEDICAL USE THEREOF” (Japan Tobacco Inc., priority 2004, published 2018).

Experiments:
p15 protein = assay: Evaluation of p15 induction activity (Western blotting); format: cell-based; conditions: test substance 0.1 μM, 24 hrs, ACHN cells or HT-29 cells, compared to DMSO, n=2
Description: ACHN cells or HT-29 cells were cultured in a 6 well plate at 2.5×10^5 cells/1.8 mL/well for 24 hrs, then a test substance (0.1 μM) dissolved in DMSO was added. After 24 hrs, cells were detached using trypsin-EDTA (ethylene diamine tetraacetic acid) and solubilized with NuPAGE LDS sample buffer (Invitrogen). Using an RC DC protein assay kit (BIO-RAD), the protein concentration of the sample was quantitated, and a sample in an amount corresponding to 10 μg of BSA (bovine serum albumin) was analyzed by Western blotting using an anti-p15 antibody. The density of the band stained with the anti-p15 antibody was measured by a densitometer to quantify the amount of p15 protein. As a control, DMSO was used and the test was performed with n=2 and the average protein amount was determined.

[1] = system: colorectal cancer cell line HT-29 cells; assay: Growth inhibitory effect against cancer cell lines (3H-thymidine uptake), HT-29; format: cell-based; conditions: Homo sapiens, HT-29, inhibition of 3H-thymidine uptake; test substance 18 hrs, then 3H-thymidine 6 hrs; triplicate
Description: Renal cancer cell line ACHN cell or colorectal cancer cell line HT-29 cells were cultured in a 96 well plate at 1.0×10^4 cells/90 μL/well for 24 hrs, then a test substance dissolved in DMSO (dimethyl sulfoxide) was added. After 18 hrs, ^3H-thymidine (0.25 μCi/well) was added and the cells were cultured for 6 hrs. Using a cell harvester, the cells were recovered on a UniFilter-96 GF/B glass filter and the ^3H radioactivity uptaken by the cells was measured by TopCount (Packard). As a control, DMSO was used and the activity of the test substance was expressed in the concentration (IC50) necessary for inhibiting ^3H radioactivity uptaken by the cell to 50% of that of the control group. The measurements were made in triplicate.

| IC50 [1] | SMILES | fold induction at 0.1 µM (p15 protein) |
| --- | --- | --- |
| – | Cn1c(=O)cc(Nc2ccc(F)cc2)c2c(=O)n(-c3ccccc3)c(=O)n(-c3ccccc3)c21 [Example 1-8] | ≥ 1.5 |
| – | Cn1c(=O)cc(Nc2ccccc2)c2c(=O)n(-c3ccccc3)c(=O)n(-c3ccccc3)c21 [Example 1-12] | ≥ 1.5 |
| – | Cn1c(=O)cc(Nc2ccc3c(c2)OCO3)c2c(=O)n(-c3ccccc3)c(=O)n(-c3ccccc3)c21 [Example 1-16] | ≥ 1.5 |
| – | Cn1c(=O)cc(Nc2ccc(Cl)c(Cl)c2)c2c(=O)n(-c3ccccc3)c(=O)n(-c3ccccc3)c21 [Example 1-17] | ≥ 1.5 |
| – | Cn1c(=O)c2c(Nc3ccc(Cl)cc3)cc(=O)n(C)c2n(-c2ccccc2)c1=O [Example 1-35] | ≥ 1.5 |
| – | Cn1c(=O)cc(NCC(C)(C)C)c2c(=O)n(-c3ccccc3)c(=O)n(-c3ccccc3)c21 [Example 1-36] | ≥ 1.5 |
| – | Cn1c(=O)cc(Nc2ccc(C(=O)O)cc2)c2c(=O)n(-c3ccccc3)c(=O)n(-c3ccccc3)c21 [Example 1-37] | ≥ 1.5 |
| – | CCCC(CCC)c1ccc(Nc2cc(=O)n(C)c3c2c(=O)n(-c2ccccc2)c(=O)n3-c2ccccc2)cc1 [Example 1-40] | ≥ 1.5 |
| – | Cn1c(=O)cc(Nc2ccc(N)cc2)c2c(=O)n(-c3ccccc3)c(=O)n(-c3ccccc3)c21 [Example 1-46] | ≥ 1.5 |
| – | Cc1cc(Cl)ccc1Nc1cc(=O)n(C)c2c1c(=O)n(-c1ccccc1)c(=O)n2-c1ccccc1 [Example 1-53] | ≥ 1.5 |
| – | CCNc1ccc(Nc2cc(=O)n(C)c3c2c(=O)n(-c2ccccc2)c(=O)n3-c2ccccc2)cc1 [Example 1-65] | ≥ 1.5 |
| – | Cn1c(=O)cc(Nc2ccc(Cl)cc2)c2c(=O)n(-c3ccc(F)cc3)c(=O)n(-c3ccc(F)cc3)c21 [Example 1-79] | ≥ 1.5 |
| – | Cn1c(=O)cc(Nc2ccc(Cl)cc2)c2c(=O)n(C3CCCC3)c(=O)n(-c3ccccc3)c21 [Example 1-80] | ≥ 1.5 |
| – | CC(C)n1c(=O)c2c(Nc3ccc(Cl)cc3)cc(=O)n(C)c2n(-c2ccccc2)c1=O [Example 1-81] | ≥ 1.5 |
| 100 to 1000 nM | CCn1c(=O)c2c(Nc3ccc(Br)cc3)cc(=O)n(C)c2n(-c2ccccc2)c1=O [Example 1-96] | ≥ 1.5 |
| – | Cn1c(=O)cc(Nc2ccc(Br)cc2)c2c(=O)n(C3CCC3)c(=O)n(-c3ccccc3)c21 [Example 1-107] | ≥ 1.5 |
| – | Cc1ccccc1-n1c(=O)n(CC(F)(F)F)c(=O)c2c(Nc3ccc(Br)cc3)cc(=O)n(C)c21 [Example 1-108] | ≥ 1.5 |
| – | CCn1c(=O)c2c(Nc3ccc(Cl)cc3)cc(=O)n(C)c2n(-c2ccccc2C)c1=O [Example 1-109] | ≥ 1.5 |
| – | CCn1c(=O)c2c(Nc3ccc(N(C)C)cc3)cc(=O)n(C)c2n(-c2ccccc2C)c1=O [Example 1-110] | ≥ 1.5 |
| 100 to 1000 nM | CCn1c(=O)c2c(Nc3ccc(Br)cc3)cc(=O)n(C)c2n(-c2ccccc2C)c1=O [Example 1-111] | ≥ 1.5 |
| 100 to 1000 nM | CCn1c(=O)c2c(Nc3ccc(Br)cc3)cc(=O)n(C)c2n(-c2ccccc2F)c1=O [Example 1-116] | ≥ 1.5 |
| 100 to 1000 nM | CCn1c(=O)c2c(Nc3ccc(N(C)C)cc3)cc(=O)n(C)c2n(-c2ccccc2F)c1=O [Example 1-117] | ≥ 1.5 |
| 100 to 1000 nM | Cc1ccc(-n2c(=O)n(C3CC3)c(=O)c3c(Nc4ccc(N(C)C)cc4)cc(=O)n(C)c32)cc1 [Example 1-126] | ≥ 1.5 |

| IC50 [1] | SMILES | fold induction at 0.1 µM (p15 protein) |
| --- | --- | --- |
| 100 to 1000 nM | Cc1cccc(-n2c(=O)n(C3CC3)c(=O)c3c(Nc4ccc(N(C)C)cc4)cc(=O)n(C)c32)c1 [Example 1-127] | ≥ 1.5 |
| – | CCn1c(=O)c2c(Nc3ccc(Br)cc3)cc(=O)n(C)c2n(-c2cccnc2)c1=O [Example 1-131] | ≥ 1.5 |
| 100 to 1000 nM | CN(C)c1ccc(Nc2cc(=O)n(C)c3c2c(=O)n(C2CC2)c(=O)n3-c2ccc(F)cc2)cc1 [Example 1-132] | ≥ 1.5 |
| 100 to 1000 nM | CN(C)c1ccc(Nc2cc(=O)n(C)c3c2c(=O)n(C2CC2)c(=O)n3-c2cccc(F)c2)cc1 [Example 1-133] | ≥ 1.5 |
| 100 to 1000 nM | CNc1ccc(Nc2cc(=O)n(C)c3c2c(=O)n(C2CC2)c(=O)n3-c2ccccc2)cc1 [Example 1-136] | ≥ 1.5 |
| – | CCNc1ccc(Nc2cc(=O)n(C)c3c2c(=O)n(C2CC2)c(=O)n3-c2ccccc2)cc1 [Example 1-137] | ≥ 1.5 |
| 100 to 1000 nM | Cn1ccc2cc(Nc3cc(=O)n(C)c4c3c(=O)n(C3CC3)c(=O)n4-c3ccccc3)ccc21 [Example 1-138] | ≥ 1.5 |
| 100 to 1000 nM | CN(C)c1ccc(Nc2cc(=O)n(C)c3c2c(=O)n(C2CC2)c(=O)n3-c2ccccc2)cc1F [Example 1-143] | ≥ 1.5 |
| – | COc1ccc(Nc2cc(=O)n(C)c3c2c(=O)n(C2CC2)c(=O)n3-c2ccccc2)c(OC)c1 [Example 1-146] | ≥ 1.5 |
| 100 to 1000 nM | Cn1c(=O)cc(Nc2ccc(Br)c(F)c2)c2c(=O)n(C3CC3)c(=O)n(-c3ccccc3)c21 [Example 1-151] | ≥ 1.5 |
| 100 to 1000 nM | CC1CC1n1c(=O)c2c(Nc3ccc(Br)cc3)cc(=O)n(C)c2n(-c2ccccc2)c1=O (stereo not drawn) [Example 1-153] | ≥ 1.5 |
| – | COc1ccc(Nc2cc(=O)n(C)c3c2c(=O)n(C2CC2)c(=O)n3-c2ccccc2)c(C)c1 [Example 1-154] | ≥ 1.5 |
| 100 to 1000 nM | Cc1cc(Br)ccc1Nc1cc(=O)n(C)c2c1c(=O)n(C1CC1)c(=O)n2-c1ccccc1 [Example 1-156] | ≥ 1.5 |
| – | Cc1cc(Nc2cc(=O)n(C)c3c2c(=O)n(C2CC2)c(=O)n3-c2ccccc2)ccc1Br [Example 1-157] | ≥ 1.5 |
| – | Cn1c(=O)cc(Nc2ccc(F)cc2F)c2c(=O)n(C3CC3)c(=O)n(-c3ccccc3)c21 [Example 1-162] | ≥ 1.5 |
| 100 to 1000 nM | Cn1c(=O)cc(Nc2ccc(Cl)cc2Cl)c2c(=O)n(C3CC3)c(=O)n(-c3ccccc3)c21 [Example 1-163] | ≥ 1.5 |
| 100 to 1000 nM | Cn1c(=O)cc(Nc2ccc3[nH]ccc3c2)c2c(=O)n(C3CC3)c(=O)n(-c3ccccc3)c21 [Example 1-165] | ≥ 1.5 |
| 10 to 100 nM | COc1ccccc1-n1c(=O)n(C2CC2)c(=O)c2c(Nc3ccc(Br)cc3F)cc(=O)n(C)c21 [Example 1-166] | ≥ 1.5 |
| – | CCn1ccc2cc(Nc3cc(=O)n(C)c4c3c(=O)n(C3CC3)c(=O)n4-c3ccccc3)ccc21 [Example 1-167] | ≥ 1.5 |
| – | Cn1c(=O)cc(Nc2ccc(O)cc2)c2c(=O)n(C3CC3)c(=O)n(-c3ccccc3)c21 [Example 1-172] | ≥ 1.5 |
| – | Cn1c(=O)cc(Nc2ccccc2F)c2c(=O)n(C3CC3)c(=O)n(-c3ccccc3)c21 [Example 1-173] | ≥ 1.5 |
| 100 to 1000 nM | Cc1c(=O)n(C)c(Nc2ccc(I)cc2F)c2c(=O)n(CCCO)c(=O)n(-c3ccccc3)c12 [Example 4-147] | – |
| 100 to 1000 nM | Cc1c(=O)n(C)c(Nc2ccc(I)cc2F)c2c(=O)n(CCCO)c(=O)n(-c3cccc(NC(=O)CO)c3)c12 [Example 4-148] | – |
